First: CC(C)C(=O)c1nccnc1SCc1ccco1
Second: O=[N+]([O-])c1cccnc1NCCc1c[nH]cn1
The melting point of the first is lower: 57 to 58 °C for the first, 178 to 180 °C for the second.

First: CC(Cc1c[nH]c2ccccc12)(NC(=O)OC1C2CC3CC(C2)CC1C3)C(=O)NCC(NC=O)c1ccccc1 (configuration not stated)
Second: O=C(Nc1ccccc1)Nc1ccc(Cl)cc1C(=O)c1ccccc1
The melting point of the first is lower: 102 to 118 °C for the first, 145 to 147 °C for the second.

Compared with `CCCCC1(CCCC)NC(c2nc(-c3ccccc3)cs2)Cc2c1[nH]c1ccccc21` (configuration not stated), `Cc1csc(COc2nn3c(-c4ccccc4)nnc3cc2-c2ccccc2)n1` is higher in melting point: 134 to 136 °C for the first, 177 °C for the second.

First: O=C(O)C(Cl)(Cl)CCCCCCCCCCBr
Second: CCCCCCCCS(=O)(=O)NC(Cc1cc2c(N)nccc2s1)C(=O)N1CCC(C)CC1 (configuration not stated)
The melting point of the first is lower: 49 to 51 °C for the first, 101 to 112 °C for the second.

First: O=[N+]([O-])c1cccc2c1ncn2-c1cccc(Br)c1
Second: COC(=O)CCc1ccc(Nc2ccccc2[N+](=O)[O-])cc1
The melting point of the first is higher: 180 to 182 °C for the first, 68 to 70 °C for the second.

First: COc1cn(-c2ccc(C3CCOCC3)cc2F)nc(-c2ccnn2-c2ccccc2)c1=O
Second: COC(=O)N1CCN(c2ccn3nc(-c4ccccc4)c(-c4ccc(=O)n(C(C)C)n4)c3c2)CC1
The melting point of the first is lower: 187 to 189 °C for the first, 206 to 207 °C for the second.

First: COC(=O)c1cc2nc(C)[nH]c2cc1C(=O)OC
Second: COc1cc2c(=O)c(C#N)c[nH]c2cc1NC(C)=O
The melting point of the first is lower: 151 to 152 °C for the first, 305 to 310 °C for the second.

Compared with `N#Cc1ccc(NC(=O)c2c(O)ccc3ccccc23)c(OC(F)(F)F)c1`, `COC(=O)CCc1ccc(-n2c(C)nn(-c3ccc(C#N)cc3)c2=O)cc1` is lower in melting point: 169 °C for the first, 163 to 164 °C for the second.

First: Cc1sc(C(=O)O)c(SC(C)C)c1Br
Second: Nc1cc(Cl)c(Cl)cc1C(=O)O
The melting point of the first is lower: 132 to 134 °C for the first, 196 to 203 °C for the second.

First: CSc1cc(Nc2cccc(C)c2)c(S(=O)(=O)NC(C)(C)C)cn1
Second: CC(C)(C)c1cc(C(=O)Sc2ccccn2)cc(C(C)(C)C)c1
The melting point of the first is higher: 178 °C for the first, 73 to 74 °C for the second.

First: O=C(CCCCC1CCSS1)NC(Cc1c[nH]cn1)C(=O)O (configuration not stated)
Second: O=C(CCCCCNC(=O)Nc1cn2c3c(cccc13)CCC2)NO
The melting point of the first is lower: 122 to 126 °C for the first, 161 to 163 °C for the second.

`O=C(Nc1cccc2c1C(=O)N(CC(=O)N1CCC(CO)CC1)C2=O)c1ccc(Cl)s1` and `Cc1ccc2c(c1Cl)C(=O)N(C1(C(N)=O)CCCCC1)C2=O` cannot be ordered by melting point: 198 °C for the first, 192 to 208 °C for the second.

First: CNC(=Nc1ccccc1N1CCCCC1)C(C)(C)C
Second: CC(C)(C)OC(=O)N1CCCN(c2ccc(F)cc2)CC1
The melting point of the first is lower: 78 °C for the first, 88 to 89 °C for the second.

First: CCCC(=O)OC1(C(=O)COC(=O)CC)CCC2C3CC(C)C4=CC(=O)C=CC4(C)C3C(O)CC21C (configuration not stated)
Second: CC(=O)C1CCC2C3CC=C4C=CCCC4(C)C3CCC12C (configuration not stated)
The melting point of the first is lower: 126 °C for the first, 135 to 136 °C for the second.

First: CCc1ccc2c(n1)C(C(N)=S)CCC2 (configuration not stated)
Second: Oc1cccc2c1CC(n1cc[nH]c1=S)CC2 (configuration not stated)
The melting point of the first is lower: 73 to 75 °C for the first, 274 to 276 °C for the second.

`Cc1ccc(-c2cncc(CN3CC=C(c4ccccc4)CC3)c2)cc1` and `CSc1nc(NCc2ccc(-c3ccccc3)cc2)n2ncc(C(C)C)c2n1` cannot be ordered by melting point: 133 to 135 °C for the first, 134 to 135 °C for the second.

First: CCCc1c(OCCCSc2nnc(NC(=O)CC(=O)O)s2)ccc(C(C)=O)c1O
Second: O=C(O)C(=O)c1ccc(OCCCCc2cccnc2)cc1
The melting point of the first is higher: 172 to 174 °C for the first, 163 to 165 °C for the second.

Compared with `CCC(=O)n1ccc(-c2ccc(C(=O)N3Cc4cccn4Cc4ccccc43)cc2)n1`, `O=C(C=Cc1ccccc1)c1cccc(NC(=O)c2ccn3c2CSC3c2cccnc2)c1` (configuration not stated) is higher in melting point: 150 to 152 °C for the first, 190 °C for the second.

First: O=C1CCCC(=O)N1c1cc(Cc2n[nH]c(=O)c3ccccc23)ccc1F
Second: CN1C(=O)CC(=O)N(C)c2ccccc21
The melting point of the first is higher: 259 to 263 °C for the first, 240 to 242 °C for the second.

Compared with `CCCc1ccc(C(O)(c2c(C)cc(C)c(C)c2OC)C(C)C)cc1` (configuration not stated), `CON(C)C(=O)Nc1ccc(OCCc2ccc(C)cc2C)cc1` is higher in melting point: 59 to 60 °C for the first, 95 to 95.5 °C for the second.

Compared with `COc1ccc(C#CCO)c2c1c(CCN(C)C)cn2C`, `COC(=O)CCc1cc(C(=O)c2ccc(OC)cc2)c(OC)cc1OC` is higher in melting point: 101 to 104 °C for the first, 114 to 117 °C for the second.

Compared with `CC(=O)C1C(=O)CC(C#N)CC1=O` (configuration not stated), `CC(=O)C=Cn1sc(Cl)cc1=O` is higher in melting point: 66 to 69 °C for the first, 137 to 139 °C for the second.

First: O=C(CBr)Nc1c(Cl)cccc1C(=O)O
Second: CCN(CC)C(=O)Nc1ccc(S(=O)(=O)Cl)cc1
The melting point of the first is higher: 173 to 175 °C for the first, 148 to 150 °C for the second.

First: COc1cccc(CNc2ncnc3c2sc2nc(N(C)C)c4c(c23)CC(C)(C)OC4)c1OC
Second: COc1cc(OC)c2cnc(-c3cc(C)c(OCCO)c(C)c3)nc2c1
The melting point of the first is lower: 89.9 to 90.7 °C for the first, 169 to 170 °C for the second.

First: O=C(NS(=O)(=O)c1ccccc1-c1ccc(Cn2c(CCCC(F)(F)F)nn(-c3ccccc3C(F)(F)F)c2=O)cc1)c1ccccc1
Second: CC(C)c1ccc(S(=O)(=O)c2ccccc2)cc1S(=O)(=O)NC1CCN(C(=O)c2cccc(F)c2)CC1
The melting point of the first is lower: 197 to 199 °C for the first, 215 to 218 °C for the second.

Compared with `CON(c1ccc([N+](=O)[O-])cc1C#N)S(=O)(=O)c1ccc(Cl)s1`, `COC1=C(OC)C(=O)c2c(C#N)cccc2C1=O` is higher in melting point: 144 to 146 °C for the first, 171 to 172 °C for the second.

Compared with `Cc1cc(F)cc2nc(Cl)c(Cl)nc12`, `Cc1ccc2nc(S)oc2c1` is higher in melting point: 116 to 120 °C for the first, 209 °C for the second.

First: Nc1nc(N)c2ncn(OCCCCP(=O)(O)O)c2n1
Second: N#Cc1cn(C2OC(CO)C(O)C2O)c2ncn(O)c(=O)c12 (configuration not stated)
The melting point of the first is higher: 295 to 297 °C for the first, 229 to 231 °C for the second.

Compared with `COc1ccc(CN(C)CCCCc2ccc(NC(=O)c3cccc4c(=O)c5cccc(OC)c5[nH]c34)cc2)cc1OC`, `CNc1nc(-c2cccc(-n3cccc3)c2)c2cc(OC)c(OC)cc2n1` is higher in melting point: 157 °C for the first, 199 to 201 °C for the second.

`CC(=O)Nc1ccc(C2=NNC(=O)NC2C)cc1` (configuration not stated) and `Oc1ncc(-c2ccc(C(F)(F)F)cc2)cn1` cannot be ordered by melting point: 272 to 273 °C for the first, 271 to 273 °C for the second.

Compared with `CC1(C)CC(N(CCO)CC(O)COc2ccc(C(C)(C)c3ccc(OCC(O)CN(CCO)C4CC(C)(C)NC(C)(C)C4)cc3)cc2)CC(C)(C)N1` (configuration not stated), `CCCCOCCOc1ccc(-c2cc3c4c(c2)CCN4CCCC(C(=O)O)=C3)cc1` is higher in melting point: 69 to 71 °C for the first, 217 to 218 °C for the second.

Compared with `O=C(c1cc(O)c(O)c(O)c1)c1csc(-c2ccccc2)n1`, `O=C(CCCc1ccccc1)c1cc(O)c(O)c([N+](=O)[O-])c1` is lower in melting point: 175 to 176 °C for the first, 118 to 119 °C for the second.

First: COc1cc(Nc2c(C#N)cnc3cc(Br)ccc23)c(Cl)cc1Cl
Second: COc1ccc(CC#N)cc1S(N)(=O)=O
The melting point of the first is higher: 192 to 193 °C for the first, 173 to 177 °C for the second.

First: Cc1ccc(S(=O)(=O)N2CCC(Sc3ccc(F)cc3)CC2)cc1
Second: C/C(=C\c1ccc(C(F)(F)F)cc1)[C@H]1OC[C@H](SCc2ccc(Cl)cc2)CO1
The melting point of the first is higher: 131 to 132 °C for the first, 93 to 95 °C for the second.

Compared with `O[C@@H]1c2ccccc2CC[C@H]1NCc1ccccc1` (relative stereo), `Cc1cccc(NC(=O)NC2CN(C(=O)C(C)C)c3ccccc3N(CC(=O)c3ccccc3C)C2=O)c1` (configuration not stated) is higher in melting point: 110 to 114 °C for the first, 174 to 176 °C for the second.

First: Nc1cc(-c2ccccc2)c(S(N)(=O)=O)cc1S(N)(=O)=O
Second: CCC(=O)NCC1CC1c1cccc2nc(C(F)(F)F)cn12 (configuration not stated)
The melting point of the first is higher: 197 to 198 °C for the first, 148 to 151 °C for the second.

Source: a melting point compilation (Tetko et al.; mined from patent text by program, amines drawn as free bases though some values may be those of a salt)
